Experimental data as given in publication PMC11249646, “Small-Molecule Disruptors of the Interaction between Calcium- and Integrin-Binding Protein 1 and Integrin αIIbβ3 as Novel Antiplatelet Agents” (ACS Pharmacology & Translational Science, 2024).
Where two headings read alike, the source gives them in different places.

Tests used:
[1] = molecular target: T1, GST-CIB1 : F-scrambled peptide (Homo sapiens, UniProt Q99828); experiment: FP scrambled-peptide counter screen, 1536-well format; format: binding; conditions: for Curve Class (counterscreen): qHTS curve class; for IC50: read-out: IC50 [μM] (counterscreen)
T1 construct: made in house; host or cells: BL-21 plus RIL cells (E. coli)
T1 sequence (Q99828 1-191): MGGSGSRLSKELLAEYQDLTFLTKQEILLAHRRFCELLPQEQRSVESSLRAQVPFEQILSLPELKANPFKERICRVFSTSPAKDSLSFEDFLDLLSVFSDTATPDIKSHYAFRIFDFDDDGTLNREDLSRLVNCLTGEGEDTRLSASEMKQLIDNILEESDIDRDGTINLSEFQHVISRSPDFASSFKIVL

[2] = molecular target: T2, CIB1 and αIIb interaction (CIB1-GST : F-αIIb peptide) (Homo sapiens, UniProt Q99828); experiment: FP assay, 1536-well qHTS format (primary and confirmatory screen); format: binding; conditions: for Curve Class (confirmatory screen): qHTS curve class
T2 construct: made in house; host or cells: BL-21 plus RIL cells (E. coli)
T2 sequence (Q99828 1-191): T1 sequence (Q99828 1-191)

[3] = counterscreen, negative sign = inhibitory curve
[4] = confirmatory screen, negative sign = inhibitory curve
[5] = qHTS FP screen hits, Table S2, negative = inhibition
[6] = qHTS FP screen hits, Table S2, one class per curve where COUNT > 1, negative sign = inhibitory curve
[7] = qHTS FP screen hits, Table S2, read-out: IC50
[8] = confirmatory screen, read-out: IC50 [μM] (confirmatory screen)
[9] = Table S3, counterscreen, YES/NO call
[10] = Table S3, counterscreen, a negative sign marks inhibitory curves
[11] = Table S3, counterscreen, negative = inhibition
[12] = Table S3, confirmatory screen, a negative sign marks inhibitory curves
[13] = Table S3, confirmatory screen, negative = inhibition
[14] = qHTS primary screen hits, Table S2, negative = inhibition
[15] = qHTS primary screen hits, Table S2, read-out: IC50
[16] = qHTS primary screen hits, Table S2, negative sign = inhibitory curve, several classes where COUNT > 1
[17] = Table S3, confirmatory screen, YES/NO call
[18] = Table S3, confirmatory screen, read-out: IC50 [μM] (confirmatory screen)

Row | SMILES | Efficacy (%) (counterscreen) ([1]; counterscreen) | Curve Class (counterscreen) [1, 3] | IC50 ([1]; counterscreen) [µM] | Efficacy (%) (confirmatory screen) ([2]; confirmatory screen) | Confirm? (confirmatory screen) ([2]; confirmatory screen, YES/NO) | Curve Class (confirmatory screen) [2, 4] | Efficacy (%) [2, 5] [%] | Curve Class [2, 6] | IC50 [2, 7] [µM] | IC50 [2, 8] [µM] | Curve Class (counterscreen) [1, 10] | Efficacy (%) (counterscreen) [1, 11] | IC50 ([1]; Table S3, counterscreen) [µM] | Curve Class (confirmatory screen) [2, 12] | Efficacy (%) (confirmatory screen) [2, 13] | Efficacy (%) [2, 14] [%] | IC50 [2, 15] [µM] | Curve Class [2, 16] | also measured
1 | CC1(C)C=CN2C(=O)C3=CCCN3C(=O)[C@@H]2C[C@@]12Nc1ccccc1C2=O [NCGC00380729-01] | -55 | -2.2 | 39.8 | -68 | YES | -2.2 | -42 | -2.2 | 44.7 |  |  |  |  |  |  |  |  |  | 
2 | N#Cc1ccc(NS(=O)(=O)c2ccc(Nc3nc(-c4ccccc4)cs3)cc2)cc1.O=C(O)C(F)(F)F [NCGC00262382-01] | -84 | -2.2 | 44.7 | -103 | YES | -2.1 | -59 | -2.2 | 70.8 | 44.7 |  |  |  |  |  |  |  |  | 
3 | O=C(O)C(F)(F)F.O=C(c1ccc(-c2cc(O)c3ncccc3c2)cc1)N1CCNCC1 [NCGC00183806-01] |  |  |  |  |  |  |  |  |  |  | -1.2 | -59 | 35.5 | 4 | -11 | -40 | 39.8 |  | Confirm? (counterscreen) [1, 9]: YES; Curve Class ([2]; qHTS primary screen hits, Table S2, negative sign = inhibitory curve): -2.2
4 | Cc1cc(SCc2sc(-c3ccc(Cl)c(Cl)c3)nc2C)ccc1OCC(=O)O.O=C(O)C(F)(F)F [NCGC00319075-01] | 78 |  | 79.4 | -74 | YES | -3 |  |  |  | 35.5 |  |  |  |  |  | -41 | 34 |  | Confirm? (counterscreen) ([1]; counterscreen, YES/NO): YES
5 | CN1CCc2cccc3c2[C@H]1Cc1ccc(O)c(O)c1-3 [NCGC00025349-05] |  |  |  |  |  |  |  |  |  |  | 4 | -34 |  | 4 | -17 | -58 | 12.6 | -2.4 | 
6 | CCOC(=O)CC(SP(=S)(OC)OC)C(=O)OCC (stereo not drawn) [NCGC00091902-08] | -27 | -1.4 | 20 | -93 | YES | -2.2 | -52 | -2.2 | 119 | 100 |  |  |  |  |  |  |  |  | Confirm? (counterscreen) ([1]; counterscreen, YES/NO): YES
7 | O=C(O)C(F)(F)F.O=C(O)c1ccc(-c2ccc3ncnc(N4CCOCC4)c3c2)o1 [NCGC00229619-01] |  |  |  |  |  |  |  |  |  |  | -2.4 | -53 | 5.6 | -1.4 | -29 | -16 | 4 | -1.4 | Confirm? (confirmatory screen) [2, 17]: YES; IC50 [2, 18]: 10 µM
8 | NC(=O)C1CCN(c2nc(-c3ccccc3N)cs2)CC1.O=C(O)C(F)(F)F [NCGC00183555-01] |  |  |  |  |  |  |  |  |  |  | -1.4 | -31 | 28.2 | 4 | -21 | -77 | 39.8 | -2.2 | Confirm? (counterscreen) [1, 9]: YES
9 | O=C(Nc1nc(-c2ccccc2)cs1)c1ccccc1NS(=O)(=O)c1ccc(F)cc1.O=C(O)C(F)(F)F [NCGC00247844-02] |  |  |  |  |  |  |  |  |  |  |  | 102 | 50.1 | 3 | 48 | -24 | 17.8 | -1.4 | 
10 | COc1c(O)cccc1[C@H](O)C1CCN(CCc2ccc(F)cc2)CC1 [NCGC00168042-01] |  |  |  |  |  |  |  |  |  |  | -2.1 | -83 | 50.1 | -2.4 | -89 |  |  |  | Confirm? (confirmatory screen) [2, 17]: YES; IC50 [2, 18]: 50.1 µM
11 | C=C1C(OC(=O)/C(C)=C\C)[C@@]23CCC4[C@@](C)(CCC[C@@]4(C)C(=O)O)C2CC[C@H]1C3OC(C)=O (stereo partly drawn) [NCGC00381205-01] | -31 | -1.4 | 8.9 | -71 | YES | -2.2 | -30 | -2.2 | 20 | 31.6 |  |  |  |  |  |  |  |  | 
12 | COC(=O)c1cc(Cl)ccc1NS(=O)(=O)C(F)(F)F [NCGC00249937-01] |  |  |  |  |  |  |  |  |  |  | 4 | -16 |  | 4 | 12 | -64 | 44.7 | -2.2 | 
13 | Cc1ccc2c(c1)/C(=C\C(=O)c1cccs1)C(=O)N2.O=C(O)C(F)(F)F [NCGC00479180-01] |  |  |  |  |  |  |  |  |  |  | -2.4 | -64 | 11.2 | -1.2 | -57 | -36 | 15.8 | -1.4 | Confirm? (confirmatory screen) [2, 17]: YES; IC50 [2, 18]: 11.2 µM
14 | C=CCNc1oc(-c2ccc(Cl)cc2)nc1C#N.O=C(O)C(F)(F)F [NCGC00183412-01] | -30 | -1.2 | 12.6 | -72 | YES | -2.2 | -54 | -2.2 | 50.1 | 31.6 |  |  |  |  |  |  |  |  | 
15 | FC(F)(F)c1cccc(N2CCN(C(=S)Nc3nccc4cccnc34)CC2)c1.O=C(O)C(F)(F)F [NCGC00244201-01] | -43 | -1.2 | 22.4 | -88 | YES | -2.2 | -55 | -1.2 | 28.2 |  |  |  |  |  |  |  |  |  | 
16 | NS(=O)(=O)c1ccc(Cc2cn(-c3nc(C(=O)O)cs3)nc2-c2ccc(F)c(F)c2)cc1.O=C(O)C(F)(F)F [NCGC00356753-01] |  |  |  |  |  |  |  |  |  |  |  | 54 | 56.2 | 4 | -27 | -29 | 31.6 | -2.4 | 
17 | CN1CCc2ccc3c4c2[C@]1(C)Cc1cccc(c1-4)OCO3 [NCGC00168048-01] |  |  |  |  |  |  | -100 | -2.1 | 39.8 |  | -2.1 | -136 | 31.6 | -2.1 | -118 |  |  |  | Confirm? (confirmatory screen) [2, 17]: YES
18 | CC1=C[C@@H]2[C@H]([C@@H](O)C[C@@]3(C)[C@H]2C[C@@H](C)[C@]3(O)C(=O)CO)[C@@]2(C)Cc3cnn(-c4ccccc4)c3C=C12 [NCGC00242505-01] | -41 | -1.2 | 12.6 | -46 | YES | -1.4 |  |  |  | 15.8 |  |  |  |  |  | -30 | 37.6 |  | 
